Entries after “also recorded” stand apart in the source; their conditions may differ.
Molecular target: T1, SERCA2a (Mus musculus, UniProt O55143)
T1 construct: host or cells: HL-1 cardiac cells
Assay: Caffeine-induced Ca2+ release assay on HL-1 cells
Format: cell-based
Design: key to SERCA2a HL-1 effect class: +++: a strong effect, comparable to or greater than that of a known compounds at a given concentration (25 µM in RyR2 R-CEPIA1er assay, 10 µM in caffeine assay and on microsomal membrane vesicles); ++: moderate effect; +: observable effect; -: no effect
Conditions: for SERCA2a HL-1 effect class: 10 µM in caffeine assay; for effect in caffeine-induced Ca^2+ release assay, in words: HL-1 cells incubated 2 h with compound; for effect in caffeine-induced Ca^2+ release assay, in words / EC50: 10 mM caffeine; for EC50: caffeine-induced Ca2+ release, range after the semicolon is not explained
Method: HL-1 cardiac cells (SCC065, Merck KGaA, Darmstadt, Germany) were cultivated in Claycomb's Medium (51800C, Merck KGaA, Darmstadt, Germany), supplemented with Glutamax, 10% fetal bovine serum, 0.9% Penicillin/Streptomycin and 0.1 mM Noradrenaline (Merck KGaA, Darmstadt, Germany) on fibronectin/gelatin (Merck KGaA, Darmstadt, Germany) coated culture bottles or plates two days before plating.
HL-1 cardiac cells (50000 per well) were cultivated for 24 h in black-walled, clear-bottom 96-well micro-plates (Corning, Amsterdam, The Netherlands) covered with fibronectin/gelatin (Merck KGaA, Darmstadt, Germany) in a humidified incubator at 37 °C and 5% CO2.
Changes in Ca^2+ concentration were measured on a multiwell plate reader TECAN Spark 20M using FLIPR 6 Calcium Assay Kit from Molecular Devices (Molecular Devices LLC, München, Germany) at 37 °C. The 1000 × stock solutions of the test compounds were prepared in DMSO. 100 µl solution of test compound in Tyrode's solution containing FLIPR Calcium 6 dye was incubated for 2 hours at 37°C and 5% COz in a humidified incubator. The time courses were recorded in each well. Fluorescence was evoked at 485 nm excitation wavelength and read out in a bottom-read mode at 525 nm. Data were recorded every 2 s, exposure - 20 flashes, excitation bandwidth - 10 nm, emission bandwidth - 15 nm. To initiate Ca^2+ influx, 25 µl of 50 mM caffeine solution in Tyrode's solution containing 2 mM CaCl2 was injected in each well (speed 100 µl/s) at 10 s time point, resulting in 10 mM final concentration in the well. The differences between the caffeine induced peak minus basal fluorescence, ΔFCaff, were taken for the analysis. The Tyrode's solution + 0.1 v/v% DMSO was used as a control. The dose response curves were calculated using the software package GraphPad Prism version 8.3.1. All data are presented as mean ± S.D. from 8 independent experiments. Y=Bottom + (Top-Bottom)/(1+10^((LogEC50-X)*HillSlope)) was used where HillSlope describes the steepness of the curve, Top and Bottom are plateaus in the units of the Y axis.
The SERCA2a activity of the compounds was confirmed in two orthogonal biochemical assays: caffeine-induced Ca^2+ release assay and nicotinamide adenine dinucleotide (NADH) assay on microsomal membrane vesicles from mouse heart ventricles (mouse SER) and HEK-293T cells (HEK-293 ER). The effect of caffeine-induced Ca^2+ release in HL-1 cells, immortalized mouse cardiomyocytes, treated with the cytosolic Ca^2+ indicator FLIPR Calcium 6 (Molecular Devices) was investigated.
When caffeine binds to the RyR channel, it interacts with specific amino acids of the protein, and this interaction causes conformational changes in the protein's structure [A. des Georges, O. B. Clarke, R. Zalk, Q. Yuan, K. J. Condon, R. A. Grassucci, W. A. Hendrickson, A. R. Marks, J. Frank, Structural Basis for Gating and Activation of RyR1. Cell 2016, 167, 145 - 157.e17]. This opens the RyR2 channel pore, enabling the mass release of calcium ions from the SER Ca^2+ store.

T1 sequence (O55143 1-998 isoform O55143-2): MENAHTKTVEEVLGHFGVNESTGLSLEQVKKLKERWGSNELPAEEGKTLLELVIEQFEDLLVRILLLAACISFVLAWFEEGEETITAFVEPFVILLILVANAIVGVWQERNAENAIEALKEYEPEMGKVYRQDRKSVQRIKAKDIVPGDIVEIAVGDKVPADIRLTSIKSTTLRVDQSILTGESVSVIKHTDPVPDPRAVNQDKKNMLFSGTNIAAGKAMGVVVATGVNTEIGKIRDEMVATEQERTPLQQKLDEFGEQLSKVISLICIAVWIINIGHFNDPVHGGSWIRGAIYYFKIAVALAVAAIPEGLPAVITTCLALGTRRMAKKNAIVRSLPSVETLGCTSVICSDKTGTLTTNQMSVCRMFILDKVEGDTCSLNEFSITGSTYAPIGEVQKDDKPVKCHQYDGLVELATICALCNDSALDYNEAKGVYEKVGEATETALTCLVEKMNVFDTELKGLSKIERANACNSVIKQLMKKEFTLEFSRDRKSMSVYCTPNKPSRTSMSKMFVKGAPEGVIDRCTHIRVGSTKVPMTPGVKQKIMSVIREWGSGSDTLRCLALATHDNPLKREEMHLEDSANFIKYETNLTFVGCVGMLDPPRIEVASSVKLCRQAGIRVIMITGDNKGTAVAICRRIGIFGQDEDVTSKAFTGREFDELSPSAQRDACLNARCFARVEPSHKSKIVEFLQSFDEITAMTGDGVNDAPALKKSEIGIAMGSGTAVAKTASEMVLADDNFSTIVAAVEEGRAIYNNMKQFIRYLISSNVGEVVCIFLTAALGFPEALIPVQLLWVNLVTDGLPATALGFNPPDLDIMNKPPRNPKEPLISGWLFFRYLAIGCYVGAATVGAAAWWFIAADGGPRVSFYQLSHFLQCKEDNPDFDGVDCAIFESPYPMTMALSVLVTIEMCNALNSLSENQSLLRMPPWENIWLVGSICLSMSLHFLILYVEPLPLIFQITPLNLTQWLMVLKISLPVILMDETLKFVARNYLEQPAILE

Row | SMILES | SERCA2a HL-1 effect class | effect in caffeine-induced Ca^2+ release assay, in words | EC50 [µM]
1 | COc1ccc2c(c1)CN(C(=O)C(=O)O)CCS2 [Compound S36, reference compound] | - | no concentration dependent effect | 
2 | COc1ccc2c(c1)CN(Cc1ccc(C(=O)O)cc1)CCS2 [ARM210, reference compound] | + | clear concentration-dependent effect | 
3 | COc1ccc2c(c1)CN(CCCCN(CCCCC1(O)CC1)CCCCC1(O)CC1)CCS2 [Compound 14a, 1,1'-(((4-(7-Methoxy-2,3-dihydrobenzo[1,4-f]thiazepin-4(5H)-yl)butyl)azanediyl)bis(butane-4,1-diyl))bis(cyclopropan-1-ol)] | ++ |  | 9.2
4 | COc1ccc(OCCCNCCCCC2(O)CC2)cc1 [Compound 13b, 1-(4-((3-(4-methoxyphenoxy)propyl)amino)butyl)cyclopropan-1-ol] | ++ |  | 8.6
5 | COc1ccc(SCCCNCCCCC2(O)CC2)cc1 [Compound 13c, 1-(4-((3-((4-Methoxyphenyl)thio)propyl)amino)butyl)cyclopropan-1-ol] | ++ |  | 7.6
6 | COc1ccc(SCCCN(CCCCC2(O)CC2)CCCCC2(O)CC2)cc1 [Compound 14c, 1,1'-(((3-((4-Methoxyphenyl)thio)propyl)azanediyl)bis(butane-4,1-diyl))bis(cyclopropan-1-ol)] | +++ | most efficacious | 10.9
7 | COc1ccc2c(c1)CN(CCCCC1(O)CC1)CCS2 [Compound 13d, 1-(4-(7-methoxy-2,3-dihydrobenzo[1,4-f]thiazepin-4(5H)-yl)butyl)cyclopropan-1-ol] | + | least efficacious; also recorded: no saturation effect at concentrations up to 50 µM; also recorded: slight | 
8 | COc1ccc2c(c1)CN(CCCCNCCCCC1(O)CC1)CCS2 [Compound 13a, 1-(4-((4-(7-Methoxy-2,3-dihydrobenzo[1,4-f]-thiazepin-4(5H)-yl)butyl)amino)butyl)cyclopropan-1-ol] | + | most potent | 2.2

— patent publication EP4548971A1, “1,4-BENZOTHIAZEPINES AND RELATED COMPOUNDS WITH CYCLOPROPANOL GROUPS AS MULTI-TARGETED DRUGS” (Georg-August-Universität Göttingen Stiftung Öffentlichen …, priority 2023, dated 2025)
